These results are taken from patent publication US20030166598A1, “Medicines for treating tumoral pathologies containing the ro5-4864 compound and an apoptosis-inducing agent” (priority 2000, published 2003).

One experiment relates to Jurkat (lymphoid T). Kind of experiment: Quantification of apoptosis in Jurkat cells cultured with anti-Fas receptor antibody CH11 and PBR ligands. Type of experiment: cell-based, human. Conditions: for potentiation of the apoptotic effect of the CH11 anti-FasR antibody: FIGS. 1A and 1B; for proportion of subdiploid (apoptotic) cells: ligand at 60 μM in combination with CH11 anti-FasR antibody. On the procedure: (§1) The human lines Jurkat (lymphoid T), SHEP (neuroblastoma) transfected with a control vector or with a bcl-2 or bcl-XL vector, 143N2 (osteosarcoma) and SNB79 (glioblastoma) were cultured in DMEM or RPMI 1640 (Sigma Chemical Co., St Louis, Mo.) supplemented with FCS 10% (Dutscher, Brumath, France), penicillin G (10^2 IU/mI)+streptomycin (50 μg/ml) (Sigma) and L-glutamine ([…], Sigma).
(§2) The cells were cultured in the presence of anti-Fas receptor antibody CH11 (1 μg/ml; Immunotech, Marseilles, France) concomitantly or after exposure to RO5-4864 (BioBlock Scientific, Illkirch, France), diazepam (Roche, Neuilly sur Seine, France), or PK11195 (BioBlock), at various concentrations.
Lipophilic fluorochrome DiOC6(3) (Molecular Probes, Eugene, Oreg.) was used for measuring the membrane potential of the mitochondria (Δψm). Briefly, the cells were incubated for 15 min at 37° C. in the presence of 40 nM of DiOC6(3), with immediate analysis of the incorporation of fluorescence on a type Epics Profile II cytofluorometer (Coulter, Miami, Fla.). Hydroethydine (HE) (2 μM, 15 min at 37° C., Molecular Probes) was used for measuring the production of superoxide anion (Marchetti et al., 1996). Finally, the proportion of cells that had lost part of the chromosomal DNA (subdiploid cells) was determined with propidium iodide on cells fixed in ethanol (Nicoletti et al., 1991).
1. FIG. 1: culture of Jurkat cells in the presence of CH11 with (white histograms) or without (black histograms) RO5-4864, PK11195 or diazepam.

The subject of experiment [1] is SHEP-control (neuroblastoma transfected with a control vector). Put plainly: Cell viability (methylene blue test) with CH11 anti-FasR antibody, SHEP-control line. The experiment is classed as cell-based, human. How it is done: as §1, §2
(§3) Cell viability was measured by testing with methylene blue (Dimanche-Boitrel et al., 1992).
(§4) 2. FIG. 2: culture of the SHEP control lines (SHEP.control), of SHEP lines transfected with bcl2 (SHEP.Bcl2), and of SHEP lines transfected with bclXL (SHEP.BClXL), in the presence of CH11 with (black histograms) or without (grey histograms) RO5-4864. Evaluation of cell viability (test with methylene blue; percentage of cells on ordinate), as a function of the concentration of RO5-4864 (0, 100 μM or RO100, 200 μM or RO 200).

The next experiment has as its system SHEP-bcl-2. Put plainly: Cell viability (methylene blue test) with CH11 anti-FasR antibody, SHEP-bcl-2 line. The experiment is classed as cell-based, human. On the procedure:
as §1, §2, §3, §4

Another experiment concerns SHEP bcl-XL. Kind of experiment: Cell viability (methylene blue test) with CH11 anti-FasR antibody, SHEP bcl-XL line. The experiment is classed as cell-based, human. How it is done:
as §1, §2, §3, §4

For another experiment, the system named is 143N2 (osteosarcoma). Put plainly: Cell viability (methylene blue test) with CH11 anti-FasR antibody, 143N2 line. The experiment is classed as cell-based, human. On the procedure:
as §1, §2, §3
3. FIG. 3: culture of the 143N2 line in the presence of CH11 with (black histograms) or without (grey histograms) RO5-4864, PK11195 or diazepam. Evaluation of cell viability (test with methylene blue; percentage of cells on ordinate), as a function of the concentration of RO5-4864 (100 μM or RO 100, 200 μM or RO 200), PK11195 (50 μM or PK50, 80 μM or PK 80) and DIAZEPAM (50 μM or DIA50, 80 μM or DIA80).

The next experiment deals with SNB79 (glioblastoma). Kind of experiment: Cell viability (methylene blue test) with CH11 anti-FasR antibody, SNB79 line. Type of experiment: cell-based, human. How it is done:
as §1, §2, §3
4. FIG. 4: culture of the SNB79 line in the presence of CH11 with (•) or without (o) RO5-4864. Evaluation of cell viability (test with methylene blue; percentage of cells on the ordinate), as a function of the concentration (μM) of Ro5-4864.

In experiment [2] the test system is SCLC61 small-cell bronchial carcinoma. Put plainly: SCLC61 human tumour xenotransplanted in nude mice, tumour growth. The experiment is classed as in vivo, mouse.
The test system of experiment [3] is SCLC6 small-cell bronchial carcinoma. Kind of experiment: SCLC6 human tumour xenotransplanted in nude mice, tumour growth. The experiment is classed as in vivo, mouse. To be noted: etoposide 12 mg/kg/day + ifosfamide 90 mg/kg/day D1 to D3 + RO5-4864 40 mg/kg/day D1 to D3, p<0.05.

Regarding `CCC(C)N(C)C(=O)c1cc2ccccc2c(-c2ccccc2Cl)n1` (stereo not drawn) [PK11195], in the experiment on Jurkat (lymphoid T), the “potentiation of the apoptotic effect of the CH11 anti-FasR antibody” value (shortened to “potentiation”) is on record as “potentiate the apoptotic effect”. Further, the “proportion of subdiploid (apoptotic) cells” value (“proportion of subdiploid” below) in the experiment on Jurkat (lymphoid T) turned out to be 25%. In addition, the “reversal of resistance to the CH11 anti-FasR antibody” value (“reversal of resistance” below) is “observed” in experiment [1]; “only observed with diazepam and PK11195 on the line SHEP-control” in the experiment on SHEP-bcl-2; “only observed with diazepam and PK11195 on the line SHEP-control” in the experiment with SHEP bcl-XL; “only observed with diazepam and PK11195 on the line SHEP-control” in the experiment on 143N2 (osteosarcoma); “only observed with diazepam and PK11195 on the line SHEP-control” in the experiment on SNB79 (glioblastoma).
Regarding `CN1C(=O)CN=C(c2ccc(Cl)cc2)c2cc(Cl)ccc21` [RO5-4864, 4′-chlorodiazepam], in the experiment with Jurkat (lymphoid T), the “potentiation” value is given as “potentiate the apoptotic effect”. In the experiment with Jurkat (lymphoid T), the “proportion of subdiploid” value was 73%. For the same compound, the “reversal of resistance” value (in experiment [1]; in the experiment with SHEP-bcl-2; with SHEP bcl-XL; in the experiment on 143N2 (osteosarcoma); in the experiment on SNB79 (glioblastoma)) was “reverses the resistance” each time. The tumour growth result in experiment [2] (RO5-4864 alone, 12 mg/kg/day s.c. D1 to D3) was “not altered”. The “antitumour effect of etoposide with concomitant RO5-4864” value in experiment [2] (etoposide 12 mg/kg/day i.p. D1 to D3 + RO5-4864 12 mg/kg/day s.c. D1 to D3, p<0.005) is on record as “increased”. In addition, the “antitumour effect of the chemotherapy with RO5-4864” value in experiment [3] was “increased”.
With `CN1C(=O)CN=C(c2ccccc2)c2cc(Cl)ccc21` [diazepam], the “potentiation” value in the experiment on Jurkat (lymphoid T) is recorded as “potentiate the apoptotic effect”. Further, the “proportion of subdiploid” value in the experiment with Jurkat (lymphoid T) is 20%. Also, the “reversal of resistance” value was “observed” in experiment [1]; “only observed with diazepam and PK11195 on the line SHEP-control” in the experiment on SHEP-bcl-2; “only observed with diazepam and PK11195 on the line SHEP-control” in the experiment with SHEP bcl-XL; “only observed with diazepam and PK11195 on the line SHEP-control” in the experiment with 143N2 (osteosarcoma); “only observed with diazepam and PK11195 on the line SHEP-control” in the experiment on SNB79 (glioblastoma).
